“Also recorded” adds a separate entry of the source.
Key:
[1] = Quinidine study: safety, treatment-emergent adverse events; details: for Fecal occult bleeding (TEAE): printed under most frequent and under bleeding-related TEAEs
[2] = Quinidine drug-drug interaction study: edoxaban pharmacokinetics
[3] = Verapamil drug-drug interaction study: edoxaban pharmacokinetics
[4] = Verapamil study: safety, treatment-emergent adverse events
[5] = Dronedarone study: safety, treatment-emergent adverse events
[6] = Dronedarone drug-drug interaction study: edoxaban pharmacokinetics
[7] = Digoxin study: safety, treatment-emergent adverse events; details: for Fecal occult bleeding (TEAE): printed under most frequent and under bleeding-related TEAEs
[8] = Digoxin drug-drug interaction study: edoxaban pharmacokinetics
[9] = Atorvastatin study: safety, treatment-emergent adverse events
[10] = Amiodarone drug-drug interaction study: edoxaban pharmacokinetics; details: human, in vivo, 60 mg
[11] = cited from earlier work
[12] = Amiodarone study: safety, treatment-emergent adverse events; type: in vivo, healthy volunteers (human)
[13] = Edoxaban administered alone, pharmacokinetics across the 6 studies
[14] = Atorvastatin drug-drug interaction study: edoxaban pharmacokinetics; details: human, in vivo, 60 mg
[15] = Tolerability across the 6 studies; type: in vivo, healthy subjects (human); details: edoxaban alone or coadministered with the 6 cardiovascular drugs

C=C[C@H]1C[N@@]2CC[C@H]1C[C@@H]2[C@@H](O)c1ccnc2ccc(OC)cc12 [Quinidine, quinidine]
Blood creatinine increased (TEAE) [1]: 1 (2.8 %) n (%) | Chest pain (TEAE) [1]: 0 n (%) | Epistaxis (bleeding-related TEAE) [1]: 1 (2.8 %) n (%) | Headache (TEAE) [1]: 3 (8.3 %) n (%) | Hematochezia (bleeding-related TEAE) [1]: 0 n (%) | Irregular menstruation (bleeding-related TEAE) [1]: 0 n (%) | Menorrhagia (bleeding-related TEAE) [1]: 0 n (%) | Nausea (TEAE) [1]: 2 (5.6 %) n (%) | Subjects reporting ≥1 TEAE [1]: 11 (30.6 %) n (%) | Subjects reporting ≥1 treatment-related TEAE [1]: 4 (11.1 %) n (%) | Subjects withdrawn with QTc prolongation ([1]; after quinidine dosing): 1 subject | Fecal occult bleeding (TEAE) [1]: 0 n (%) | Effect of coadministration on edoxaban exposure (in words) ([2]; quinidine study): increased edoxaban exposure; also recorded: significantly increased exposure

COc1ccc(CCN(C)CCCC(C#N)(c2ccc(OC)c(OC)c2)C(C)C)cc1OC (stereo not drawn) [Verapamil, verapamil]
Effect of coadministration on edoxaban exposure (in words) ([3]; verapamil study): increased edoxaban exposure; also recorded: significantly increased exposure | Constipation (TEAE) [4]: 4 (12.1 %) n (%) | Epistaxis (bleeding-related TEAE) [4]: 0 n (%) | Fecal occult bleeding (bleeding-related TEAE) [4]: 0 n (%) | Headache (TEAE) [4]: 3 (9.1 %) n (%) | Menorrhagia (bleeding-related TEAE) [4]: 1 (3.0 %) n (%) | Occular hyperemia (TEAE) [4]: 1 (3.0 %) n (%) | Subjects reporting ≥1 TEAE [4]: 13 (39.4 %) n (%) | Subjects reporting ≥1 treatment-related TEAE [4]: 9 (27.2 %) n (%) | Subjects withdrawn with abnormal ECG ([4]; following verapamil monotherapy): 3 subjects

CCCCc1oc2ccc(NS(C)(=O)=O)cc2c1C(=O)c1ccc(OCCCN(CCCC)CCCC)cc1 [Dronedarone, dronedarone]
Bleeding-related TEAEs [5]: 0 n (%) | Headache (TEAE) [5]: 0 n (%) | Subjects reporting ≥1 TEAE [5]: 4 (11.8 %) n (%) | Subjects reporting ≥1 treatment-related TEAE [5]: 1 (2.9 %) n (%) | Effect of coadministration on edoxaban exposure (in words) ([6]; dronedarone study): increased edoxaban exposure; also recorded: significantly increased exposure

C[C@H]1O[C@@H](O[C@H]2[C@@H](O)C[C@H](O[C@H]3[C@@H](O)C[C@H](O[C@H]4CC[C@@]5(C)[C@H](CC[C@@H]6[C@@H]5C[C@@H](O)[C@]5(C)[C@@H](C7=CC(=O)OC7)CC[C@]65O)C4)O[C@@H]3C)O[C@@H]2C)C[C@H](O)[C@@H]1O [Digoxin, digoxin]
Dizziness (TEAE) [7]: 0 n (%) | Headache (TEAE) [7]: 2 (8.3 %) n (%) | Nausea (TEAE) [7]: 1 (4.2 %) n (%) | Subjects reporting ≥1 TEAE [7]: 8 (33.3 %) n (%) | Subjects reporting ≥1 treatment-related TEAE [7]: 1 (4.2 %) n (%) | Fecal occult bleeding (TEAE) [7]: 3 (12.5 %) n (%) | Effect of coadministration on edoxaban exposure/PK (in words) ([8]; digoxin study): minimal effects; also recorded: relatively minor effects; also recorded: did not significantly affect exposure

CN1CCc2nc(C(=O)N[C@@H]3C[C@@H](C(=O)N(C)C)CC[C@@H]3NC(=O)C(=O)Nc3ccc(Cl)cn3)sc2C1 [Edoxaban, edoxaban]
Constipation (TEAE) [9]: 0 n (%) | Dysmenorrhea (bleeding-related TEAE) [9]: 1 (3.1%) n (%) | Fecal occult bleeding (bleeding-related TEAE) [9]: 2 (6.3%) n (%) | Nasal congestion (TEAE) [9]: 0 n (%) | Pharyngolaryngeal pain (TEAE) [9]: 0 n (%) | Subjects reporting ≥1 TEAE [9]: 4 (13.3%) n (%) | Subjects reporting ≥1 treatment-related TEAE [9]: 1 (3.3%) n (%) | Bleeding-related TEAEs [5]: 0 n (%) | Headache (TEAE) [5]: 0 n (%) | Subjects reporting ≥1 TEAE [5]: 0 n (%) | Subjects reporting ≥1 treatment-related TEAE [5]: 0 n (%) | AUC(0-inf) [10]: 1740 ng·h/mL | AUC(0-t) [10]: 1720 ng·h/mL | Cmax [10]: 251 ng/mL | half-life [10]: 12.2 h | Systemically absorbed drug eliminated via renal excretion [11]: approximately 50% | Mean terminal elimination half-life (t½) ([11]; healthy volunteers): 8.75 to 10.4 h | Time of peak concentrations postdose ([11]; healthy volunteers): 1 to 2 h | Contact dermatitis (TEAE) [12]: 0 n (%) | Diarrhea (TEAE) [12]: 1 (3.3 %) n (%) | Fecal occult bleeding (bleeding-related TEAE) [12]: 0 n (%) | Gingival bleeding (bleeding-related TEAE) [12]: 0 n (%) | Menorrhagia (bleeding-related TEAE) [12]: 0 n (%) | Pain in extremity (TEAE) [12]: 1 (3.3 %) n (%) | Subjects reporting ≥1 TEAE [12]: 5 (16.7 %) n (%) | Time of peak edoxaban concentrations postdose ([13]; across the studies): 1 to 3 h | AUC(0-inf) ([13]; human, in vivo, 60 mg): 1580 to 1970 ng·h/mL | Cmax ([13]; human, in vivo, 60 mg): 223 to 296 ng/mL | AUC(0-inf) [14]: 1970 ng·h/mL | Cmax [14]: 282 ng/mL | Tmax [14]: 1.02 h | concentration at 24 h [14]: 12.6 ng/mL | half-life [14]: 12 h | Blood creatinine increased (TEAE) [1]: 0 n (%) | Chest pain (TEAE) [1]: 1 (2.7 %) n (%) | Epistaxis (bleeding-related TEAE) [1]: 0 n (%) | Headache (TEAE) [1]: 0 n (%) | Hematochezia (bleeding-related TEAE) [1]: 1 (2.7 %) n (%) | Irregular menstruation (bleeding-related TEAE) [1]: 1 (2.7 %) n (%) | Menorrhagia (bleeding-related TEAE) [1]: 1 (2.7 %) n (%) | Nausea (TEAE) [1]: 0 n (%) | Subjects reporting ≥1 TEAE [1]: 5 (13.5 %) n (%) | Subjects reporting ≥1 treatment-related TEAE [1]: 3 (8.1 %) n (%) | Fecal occult bleeding (TEAE) [1]: 2 (5.4 %) n (%) | AUC(0-t) ([3]; human, in vivo, 60 mg): 1440 ng·h/mL | Cmax ([3]; human, in vivo, 60 mg): 226 ng/mL | Tmax ([3]; human, in vivo, 60 mg): 1.48 h | concentration at 24 h ([3]; human, in vivo, 60 mg): 11 ng/mL | half-life ([3]; human, in vivo, 60 mg): 7.43 h | half-life ([6]; human, in vivo, 60 mg): 10.2 h | Dizziness (TEAE) [7]: 1 (4.2 %) n (%) | Headache (TEAE) [7]: 0 n (%) | Nausea (TEAE) [7]: 1 (4.2 %) n (%) | Subjects reporting ≥1 TEAE [7]: 19 (79.2 %) n (%) | Subjects reporting ≥1 treatment-related TEAE [7]: 1 (4.2 %) n (%) | Fecal occult bleeding (TEAE) [7]: 1 (4.2 %) n (%) | Constipation (TEAE) [4]: 1 (3.0 %) n (%) | Epistaxis (bleeding-related TEAE) [4]: 0 n (%) | Fecal occult bleeding (bleeding-related TEAE) [4]: 1 (3.0 %) n (%) | Headache (TEAE) [4]: 0 n (%) | Menorrhagia (bleeding-related TEAE) [4]: 0 n (%) | Occular hyperemia (TEAE) [4]: 0 n (%) | Subjects reporting ≥1 TEAE [4]: 4 (12.1 %) n (%) | Subjects reporting ≥1 treatment-related TEAE [4]: 1 (3.0 %) n (%) | Tolerability (in words) [15]: well tolerated | AUC ([8]; human, in vivo, 60 mg): 1960 ng·h/mL | concentration at 24 h ([8]; human, in vivo, 60 mg): 24.5 ng/mL | half-life ([8]; human, in vivo, 60 mg): 9.83 h | AUC(0-inf) ([2]; human, in vivo, 60 mg): 1580 ng·h/mL | Cmax ([2]; human, in vivo, 60 mg): 223 ng/mL | Tmax ([2]; human, in vivo, 60 mg): 1.48 h | concentration at 24 h ([2]; human, in vivo, 60 mg): 11 ng/mL | half-life ([2]; human, in vivo, 60 mg): 6.43 h | AUC(0-t) ([2]; human, in vivo, 60 mg, Edoxaban AUC0–24, quinidine study, mean (SD)): 1450 ng·h/mL | AUC(0-t) ([2]; human, in vivo, 60 mg, Edoxaban AUClast, quinidine study, mean (SD)): 1440 ng·h/mL | Edoxaban AUC0–24 ([2]; quinidine study, mean (SD)): 1449.2 (328.6) ng·h/mL

CC(C)c1c(C(=O)Nc2ccccc2)c(-c2ccccc2)c(-c2ccc(F)cc2)n1CC[C@@H](O)C[C@@H](O)CC(=O)O [Atorvastatin, atorvastatin]
Constipation (TEAE) [9]: 2 (6.3%) n (%) | Dysmenorrhea (bleeding-related TEAE) [9]: 0 n (%) | Fecal occult bleeding (bleeding-related TEAE) [9]: 0 n (%) | Nasal congestion (TEAE) [9]: 1 (3.1%) n (%) | Pharyngolaryngeal pain (TEAE) [9]: 1 (3.1%) n (%) | Subjects reporting ≥1 TEAE [9]: 6 (18.8%) n (%) | Subjects reporting ≥1 treatment-related TEAE [9]: 3 (9.4%) n (%)

CCCCc1oc2ccccc2c1C(=O)c1cc(I)c(OCCN(CC)CC)c(I)c1 [Amiodarone, amiodarone]
Contact dermatitis (TEAE) [12]: 2 (6.9%) n (%) | Diarrhea (TEAE) [12]: 0 n (%) | Fecal occult bleeding (bleeding-related TEAE) [12]: 0 n (%) | Gingival bleeding (bleeding-related TEAE) [12]: 0 n (%) | Menorrhagia (bleeding-related TEAE) [12]: 0 n (%) | Pain in extremity (TEAE) [12]: 0 n (%) | Subjects reporting ≥1 TEAE [12]: 7 (24.1 %) n (%) | Subjects reporting ≥1 treatment-related TEAE [12]: 1 (3.4 %) n (%)
